According to patent US20080039450A1, “Compounds” (priority 2006, published 2008):

Molecular target: T1, MNK2a (Homo sapiens, UniProt Q9HBH9)
T1 construct: expressed in transfected cells; host or cells: HEK293 cells, transient co-transfection with p-eIF4E and p-MNK2a (FuGene6)
Experiment: Cell assay of MNK2a: phosphorylation of downstream substrate eIF4E in HEK293 cells transfected with MNK2a and eIF4E (Western blot)
Format: cell-based
Details: HEK293 cells over-expressing MNK2a and eIF4E; 60 min incubation; phospho-eIF4E band at 28 kDa by densitometry
Procedure: Analysis of the Effect of MNK-Inhibitors on Phosphorylation of the DownStream Substrate eIF4E
According to the literature el F4E is a unique substrate for MNK1 and MNK2. The purpose of the analysis was to over-express MNK2a together with eIF4E and subsequently incubate with substances of the invention. This would inhibit the MNK2a activity and thereby the phosphorylation of eIF 4E.
Day 1 HEK293 cells were plated in a T162 cm2-flask.
Day 2 Transient transfection with p-elF4E and p-MNK2a. […]
Protein Determination: • The cell lysates were thawed by putting the plates on ice, transferred to Eppendorf tubes and centrifuged at 1300 g, +4° C., 10 min. • 12.5 μl of the supernatant was transferred directly to the plate for protein determination (->dil 1:2) and the rest of the supernatant to new pre-cold tubes and store in −70° C. until assayed. • Day 5-6 Western Blot analysis of cell lysates, according to standard methods, using a specific phospho-elF4E antibody. • To quantify the effect of the substance on the phosphorylation of eIF4E, developed x-ray film from the Western blot analysis was scanned using a densitometer and Image Gauge 4.0 software. The detected band at 28 kDa with 0 μM substance was set to 100%. The density of the band at 28 kDa with the different concentrations of the substance was then analysed. […]

T1 sequence (Q9HBH9 whole entry): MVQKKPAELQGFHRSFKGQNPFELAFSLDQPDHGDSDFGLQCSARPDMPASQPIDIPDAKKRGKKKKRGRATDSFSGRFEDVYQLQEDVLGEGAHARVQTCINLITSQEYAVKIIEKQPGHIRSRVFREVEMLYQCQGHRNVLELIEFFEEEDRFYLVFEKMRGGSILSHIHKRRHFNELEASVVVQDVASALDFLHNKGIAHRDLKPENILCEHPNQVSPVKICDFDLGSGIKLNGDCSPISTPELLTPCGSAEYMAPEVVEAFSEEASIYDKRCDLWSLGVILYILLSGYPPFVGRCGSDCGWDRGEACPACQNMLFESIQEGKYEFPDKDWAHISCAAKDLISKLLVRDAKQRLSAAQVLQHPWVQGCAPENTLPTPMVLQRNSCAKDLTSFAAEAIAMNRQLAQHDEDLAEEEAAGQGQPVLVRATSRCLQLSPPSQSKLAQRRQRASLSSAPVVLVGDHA

Row | SMILES | IC50 [nM]
1 | Nc1ncc(-c2ccc(C(=O)N3CCOCC3)cc2F)nc1-c1ccc(O)cc1 [Example 6, 4-{3-amino-6-[2-fluoro-4-(morpholin-4-ylcarbonyl)phenyl]pyrazin-2-yl}phenol] | 1900
2 | O=C(c1ccc(-c2cncc(-c3ccc(O)cc3)n2)cc1)N1CCOCC1 [Example 77, 4-{6-[4-(morpholin-4-ylcarbonyl)phenyl]pyrazin-2-yl}phenol] | 900
